Earlier results, collected in patent US6379615B1, “Methods of sterilizing articles” (St. Jude Medical, Inc., priority 2000, dated 2002).

Settings: ethanol at about 70 percent by weight; cited from earlier work

CCO [ethanol]
bactericidal effect of ethanol alone: only mildly bactericidal
